Article PMC9574867, “Discovery and Characterization of Synthesized and FDA-Approved Inhibitors of Clostridial and Bacillary Collagenases” (Journal of Medicinal Chemistry, 2022)
Converted amounts (≈) assume the structure as drawn. “Also recorded” adds a separate entry of the source. Where two headings read alike, the source gives them in different places.

Legend:
ColQ1-CU = ColQ1-CU (Bacillus cereus, UniProt B9J3S4); assay: biochemical; parameters: species or system B. cereus strain Q1
ColH-PD = ColH-PD (Hathewaya histolytica, UniProt Q46085); assay: biochemical; type: biochemical, C. histolyticum; conditions: read-out: Percent inhibition of ColH-PD
Sequence of ColH-PD (Q46085 331-721 limits assumed): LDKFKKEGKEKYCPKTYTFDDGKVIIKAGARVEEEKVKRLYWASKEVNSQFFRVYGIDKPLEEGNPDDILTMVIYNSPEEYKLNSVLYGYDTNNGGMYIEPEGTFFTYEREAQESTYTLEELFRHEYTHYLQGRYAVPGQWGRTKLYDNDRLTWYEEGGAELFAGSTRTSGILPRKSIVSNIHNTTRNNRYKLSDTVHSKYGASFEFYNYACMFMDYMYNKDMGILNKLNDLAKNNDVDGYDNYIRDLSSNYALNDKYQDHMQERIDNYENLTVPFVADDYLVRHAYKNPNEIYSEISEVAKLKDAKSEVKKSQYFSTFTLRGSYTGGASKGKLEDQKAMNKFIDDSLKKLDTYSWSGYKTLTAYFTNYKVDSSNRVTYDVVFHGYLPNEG

ColG-CU = ColG-CU (Hathewaya histolytica, UniProt Q9X721); assay: biochemical; type: biochemical, C. histolyticum; conditions: read-out: Percent inhibition of ColG-CU
Sequence of ColG-CU (Q9X721 111-786): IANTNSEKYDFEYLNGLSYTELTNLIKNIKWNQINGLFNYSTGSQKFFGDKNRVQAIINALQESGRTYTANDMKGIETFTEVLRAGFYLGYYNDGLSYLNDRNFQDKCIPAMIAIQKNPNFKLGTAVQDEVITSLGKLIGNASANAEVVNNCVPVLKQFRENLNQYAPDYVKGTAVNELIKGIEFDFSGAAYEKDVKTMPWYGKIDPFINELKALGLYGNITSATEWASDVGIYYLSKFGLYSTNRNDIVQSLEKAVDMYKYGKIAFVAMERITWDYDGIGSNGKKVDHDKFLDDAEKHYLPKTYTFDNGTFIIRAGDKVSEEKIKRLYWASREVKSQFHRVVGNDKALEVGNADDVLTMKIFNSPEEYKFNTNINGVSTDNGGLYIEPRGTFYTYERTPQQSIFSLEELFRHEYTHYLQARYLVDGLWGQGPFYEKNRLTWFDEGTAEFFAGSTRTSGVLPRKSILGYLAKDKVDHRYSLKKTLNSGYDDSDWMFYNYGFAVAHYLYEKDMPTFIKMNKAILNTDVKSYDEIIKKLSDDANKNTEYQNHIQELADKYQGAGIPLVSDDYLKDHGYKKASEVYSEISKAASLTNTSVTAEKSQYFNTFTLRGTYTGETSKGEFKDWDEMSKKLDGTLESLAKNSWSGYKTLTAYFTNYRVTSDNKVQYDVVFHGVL

ColA-CU = ColA-CU (Bacillus cereus, UniProt Q81BJ6); assay: biochemical; type: biochemical, B. cereus strain ATCC14579; conditions: read-out: Percent inhibition of ColA-CU
Sequence of ColA-CU (Q81BJ6 93-764): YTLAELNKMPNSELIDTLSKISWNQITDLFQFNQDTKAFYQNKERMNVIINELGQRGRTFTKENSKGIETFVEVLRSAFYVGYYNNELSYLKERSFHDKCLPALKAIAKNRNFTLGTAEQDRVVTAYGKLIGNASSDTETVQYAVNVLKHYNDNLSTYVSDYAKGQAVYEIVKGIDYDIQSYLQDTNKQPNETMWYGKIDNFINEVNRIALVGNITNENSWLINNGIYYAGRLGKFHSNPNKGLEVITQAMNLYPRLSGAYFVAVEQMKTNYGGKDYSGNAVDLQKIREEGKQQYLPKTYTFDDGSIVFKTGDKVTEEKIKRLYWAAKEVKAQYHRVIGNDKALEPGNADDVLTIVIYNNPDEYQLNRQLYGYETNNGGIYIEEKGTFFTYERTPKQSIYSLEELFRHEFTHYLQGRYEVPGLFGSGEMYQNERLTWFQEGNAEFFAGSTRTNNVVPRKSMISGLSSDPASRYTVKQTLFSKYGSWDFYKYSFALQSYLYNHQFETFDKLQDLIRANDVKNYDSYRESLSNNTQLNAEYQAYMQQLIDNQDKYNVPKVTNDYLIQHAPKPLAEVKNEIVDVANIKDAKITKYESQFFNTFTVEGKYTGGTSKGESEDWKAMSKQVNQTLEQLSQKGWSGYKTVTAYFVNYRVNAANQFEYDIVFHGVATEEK

MMP-1 = molecular target: T1, MMP-1 (Homo sapiens, UniProt P03956); assay: MMP inhibition assay, MMP-1; type: biochemical
T1 construct: catalytic domains of three human MMPs; purchased Sigma-Aldrich
T1 sequence (P03956 98-276 limits assumed): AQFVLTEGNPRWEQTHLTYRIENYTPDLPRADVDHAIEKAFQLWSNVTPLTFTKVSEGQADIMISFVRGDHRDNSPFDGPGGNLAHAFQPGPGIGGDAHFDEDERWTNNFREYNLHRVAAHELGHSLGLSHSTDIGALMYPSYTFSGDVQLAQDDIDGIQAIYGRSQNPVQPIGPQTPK
Method: (§1) To assess the selectivity of the compounds over human MMPs and on other bacterial collagenases, selected compounds were tested against ColG-CU and ColH-PD from C. histolyticum and ColA-CU from B. cereus strain ATCC14579. In addition, the compounds were tested on catalytic domains of three human MMPs, which are characterized by different depths of the S1′ binding pocket (MMP-1 (shallow), −2 (intermediate), and −3 (deep)). They were also tested against other important human off-targets, which are involved in gene expression and the processing of TNF-α; these include HDAC-3, -8, TACE (ADAM-17),[33],[34] and COX-1.
(§2) The MMP inhibition assay (Sigma-Aldrich, Saint Louise, MO) was performed as previously reported and in accordance with the manufacturer’s instructions. The fluorescence signals were measured in a CLARIOstar plate reader (BMG LABTECH, Ortenberg, Germany) at a concentration of 100 μM.

MMP-2 = molecular target: T2, MMP-2 (Homo sapiens, UniProt P08253); assay: MMP inhibition assay, MMP-2; type: biochemical
T2 construct: catalytic domains of three human MMPs; purchased Sigma-Aldrich
T2 sequence (P08253 110-444 limits assumed): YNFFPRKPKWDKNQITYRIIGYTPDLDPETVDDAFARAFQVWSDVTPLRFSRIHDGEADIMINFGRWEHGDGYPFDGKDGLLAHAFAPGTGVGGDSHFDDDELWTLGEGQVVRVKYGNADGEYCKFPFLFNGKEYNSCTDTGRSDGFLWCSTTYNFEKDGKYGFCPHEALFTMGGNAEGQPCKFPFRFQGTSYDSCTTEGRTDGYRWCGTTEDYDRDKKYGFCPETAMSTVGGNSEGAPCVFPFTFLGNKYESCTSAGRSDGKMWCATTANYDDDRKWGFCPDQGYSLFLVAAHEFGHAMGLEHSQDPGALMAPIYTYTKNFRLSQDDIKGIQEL
Method: as §1, §2

MMP-3 = molecular target: T3, MMP-3 (Homo sapiens, UniProt P08254); assay: MMP inhibition assay, MMP-3; type: biochemical
T3 construct: catalytic domains of three human MMPs; purchased Sigma-Aldrich
T3 sequence (P08254 100-272 limits assumed): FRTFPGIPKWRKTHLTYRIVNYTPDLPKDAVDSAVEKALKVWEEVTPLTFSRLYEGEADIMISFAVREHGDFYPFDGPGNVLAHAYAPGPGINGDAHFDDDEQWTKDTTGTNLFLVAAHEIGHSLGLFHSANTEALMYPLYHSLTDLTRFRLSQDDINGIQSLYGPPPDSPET
Method: as §1, §2

HDAC-3 = HDAC-3 (Homo sapiens, UniProt O15379); assay: Human off-target inhibition, HDAC-3; type: biochemical
Sequence of HDAC-3 (O15379 whole entry): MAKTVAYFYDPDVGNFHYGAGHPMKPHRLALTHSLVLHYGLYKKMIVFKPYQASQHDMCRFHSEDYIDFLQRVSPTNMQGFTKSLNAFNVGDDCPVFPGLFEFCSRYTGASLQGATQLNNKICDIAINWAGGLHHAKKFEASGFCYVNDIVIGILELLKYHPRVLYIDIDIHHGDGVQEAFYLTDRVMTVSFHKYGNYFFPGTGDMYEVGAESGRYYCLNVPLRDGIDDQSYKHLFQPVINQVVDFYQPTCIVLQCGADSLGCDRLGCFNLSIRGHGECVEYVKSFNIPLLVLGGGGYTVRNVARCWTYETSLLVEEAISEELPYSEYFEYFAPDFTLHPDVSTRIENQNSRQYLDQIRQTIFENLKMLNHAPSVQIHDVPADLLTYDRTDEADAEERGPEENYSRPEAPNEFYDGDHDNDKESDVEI
Sequence of HDAC-3 (Q9Y618 395-489 partner limits assumed): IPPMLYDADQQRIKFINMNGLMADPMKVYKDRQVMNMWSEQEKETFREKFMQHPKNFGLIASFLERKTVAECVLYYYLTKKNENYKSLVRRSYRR
Method: as §1

HDAC-8 = molecular target: T4, HDAC-8 (Homo sapiens, UniProt Q9BY41); assay: Human off-target inhibition, HDAC-8; type: biochemical
T4 sequence (Q9BY41 1-377): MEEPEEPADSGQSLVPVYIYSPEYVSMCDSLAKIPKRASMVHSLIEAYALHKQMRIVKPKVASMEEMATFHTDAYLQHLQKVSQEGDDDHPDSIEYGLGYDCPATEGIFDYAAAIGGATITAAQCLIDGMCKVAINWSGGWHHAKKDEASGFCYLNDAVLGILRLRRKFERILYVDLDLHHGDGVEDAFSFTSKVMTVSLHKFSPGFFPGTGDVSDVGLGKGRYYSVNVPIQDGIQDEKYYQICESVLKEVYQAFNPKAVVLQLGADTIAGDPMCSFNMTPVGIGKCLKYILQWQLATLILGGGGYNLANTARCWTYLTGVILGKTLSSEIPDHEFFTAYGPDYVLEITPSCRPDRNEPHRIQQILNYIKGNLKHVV
Method: as §1

TACE (ADAM-17) = TACE (ADAM-17) (Homo sapiens, UniProt P78536); assay: Human off-target inhibition, TACE; type: biochemical
Sequence of TACE (ADAM-17) (P78536 215-824): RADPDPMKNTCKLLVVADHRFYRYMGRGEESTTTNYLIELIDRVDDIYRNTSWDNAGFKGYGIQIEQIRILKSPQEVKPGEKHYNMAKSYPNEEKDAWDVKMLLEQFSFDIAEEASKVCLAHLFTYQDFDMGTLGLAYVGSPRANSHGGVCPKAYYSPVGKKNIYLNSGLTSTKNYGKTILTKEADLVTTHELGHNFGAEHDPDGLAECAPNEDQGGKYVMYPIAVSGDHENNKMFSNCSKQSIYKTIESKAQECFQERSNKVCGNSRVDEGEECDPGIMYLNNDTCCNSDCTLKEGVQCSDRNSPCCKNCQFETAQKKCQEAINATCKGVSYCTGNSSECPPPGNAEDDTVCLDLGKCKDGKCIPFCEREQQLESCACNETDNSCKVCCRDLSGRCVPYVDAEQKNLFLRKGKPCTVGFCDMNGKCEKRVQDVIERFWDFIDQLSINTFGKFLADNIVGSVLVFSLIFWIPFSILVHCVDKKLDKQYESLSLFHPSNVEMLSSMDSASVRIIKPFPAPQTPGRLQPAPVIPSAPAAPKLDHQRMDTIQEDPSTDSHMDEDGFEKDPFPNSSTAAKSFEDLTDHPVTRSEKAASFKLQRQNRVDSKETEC
Method: as §1

B. cereus AH187 = assay: B. cereus growth inhibition assay; type: cell-based; conditions: Bacillus cereus, read-out: MIC50 (µM) AH187
[1] = system: B. cereus AH187 infection; type: in vivo, Galleria mellonella; conditions: in vivo
ColQ1-FL = ColQ1-FL (Bacillus cereus, UniProt B9J3S4); type: biochemical; conditions: 12.5–1.5 μM tested, SDS-PAGE
Sequence of ColQ1-FL (B9J3S4 94-965 limits assumed): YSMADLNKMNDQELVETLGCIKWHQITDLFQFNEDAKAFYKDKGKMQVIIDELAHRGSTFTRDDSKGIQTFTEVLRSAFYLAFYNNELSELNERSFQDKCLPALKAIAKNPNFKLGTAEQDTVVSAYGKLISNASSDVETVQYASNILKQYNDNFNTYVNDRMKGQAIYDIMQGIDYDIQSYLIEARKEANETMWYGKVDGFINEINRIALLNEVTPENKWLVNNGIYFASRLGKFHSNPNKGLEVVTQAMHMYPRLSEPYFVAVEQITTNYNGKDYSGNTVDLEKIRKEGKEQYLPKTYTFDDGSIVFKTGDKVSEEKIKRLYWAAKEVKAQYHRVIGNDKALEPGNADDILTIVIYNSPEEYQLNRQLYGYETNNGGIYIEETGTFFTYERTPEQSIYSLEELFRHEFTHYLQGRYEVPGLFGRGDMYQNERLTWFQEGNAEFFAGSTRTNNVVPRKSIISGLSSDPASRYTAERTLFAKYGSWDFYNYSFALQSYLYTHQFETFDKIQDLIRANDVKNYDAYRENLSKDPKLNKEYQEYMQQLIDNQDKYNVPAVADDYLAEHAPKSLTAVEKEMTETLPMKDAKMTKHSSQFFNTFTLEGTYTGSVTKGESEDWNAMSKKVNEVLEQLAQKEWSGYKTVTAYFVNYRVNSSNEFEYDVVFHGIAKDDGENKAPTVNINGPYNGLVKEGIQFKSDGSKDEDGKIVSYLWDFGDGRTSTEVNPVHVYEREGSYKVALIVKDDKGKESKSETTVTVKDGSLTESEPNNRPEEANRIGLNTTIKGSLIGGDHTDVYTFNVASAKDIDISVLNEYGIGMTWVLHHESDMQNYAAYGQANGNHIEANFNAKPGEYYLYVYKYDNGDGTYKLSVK

[2] = system: B. cereus collagenases released in the NHDF infection model; type: cell-based, B. cereus AH187
[3] = system: NHDF cells infected with B. cereus; assay: NHDF infection model, cell morphology/attachment and fibrillar collagen (picrosirius red); type: cell-based, human; conditions: B. cereus infection, 5 h

Sequence of ColQ1-CU (B9J3S4 94-765 limits assumed): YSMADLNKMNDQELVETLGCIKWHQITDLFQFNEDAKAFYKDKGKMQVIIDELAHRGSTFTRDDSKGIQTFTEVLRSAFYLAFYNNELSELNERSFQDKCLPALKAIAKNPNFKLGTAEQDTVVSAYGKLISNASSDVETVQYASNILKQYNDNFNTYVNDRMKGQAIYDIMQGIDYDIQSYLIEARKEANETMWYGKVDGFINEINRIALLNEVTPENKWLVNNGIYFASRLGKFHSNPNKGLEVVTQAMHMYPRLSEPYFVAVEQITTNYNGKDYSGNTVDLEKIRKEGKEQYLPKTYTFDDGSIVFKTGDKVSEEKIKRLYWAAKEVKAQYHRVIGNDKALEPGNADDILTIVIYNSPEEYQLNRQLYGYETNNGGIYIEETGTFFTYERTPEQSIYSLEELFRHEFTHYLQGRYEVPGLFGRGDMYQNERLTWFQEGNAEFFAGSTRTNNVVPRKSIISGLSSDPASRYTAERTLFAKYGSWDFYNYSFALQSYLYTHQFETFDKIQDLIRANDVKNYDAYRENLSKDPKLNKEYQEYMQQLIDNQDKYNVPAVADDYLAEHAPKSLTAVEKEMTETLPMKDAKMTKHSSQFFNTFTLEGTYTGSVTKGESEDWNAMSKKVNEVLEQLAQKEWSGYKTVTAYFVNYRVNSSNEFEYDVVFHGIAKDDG

| Compound | inhibition at 100 µM (ColQ1-CU) [%] | IC50 (ColQ1-CU) [µM] | Protection of Col I chains from cleavage by ColQ1-FL (ColQ1-FL) | Inhibitory effect on gelatinolytic activity of secreted collagenases [2] | further results |
| --- | --- | --- | --- | --- | --- |
| NCCCC(O)(P(=O)([O-])O)P(=O)(O)O.[Na+] [Alendronate sodium, reference compound] | 76 ± 1 | – | – | – | inhibition at 100 µM (ColH-PD): 25 ± 5%; inhibition at 100 µM (ColG-CU): 28 ± 7%; inhibition at 100 µM (ColA-CU): 18 ± 4%; IC50 (MMP-1): > 100 µM; IC50 (MMP-2): > 100 µM; IC50 (MMP-3): > 100 µM; IC50 (HDAC-3): > 100 µM; IC50 (HDAC-8): > 100 µM; IC50 (TACE (ADAM-17)): > 100 µM; MIC50 (B. cereus AH187; AH187, 48 h): 200 µM; Increase in survival of infected larvae [1]: 40%; Survival of infected larvae vs control without inhibitor [1]: ameliorated the survival of the larvae in a dose-dependent manner |
| O=P(O)(O)C(Cl)(Cl)P(=O)(O)O [Clodronate disodium, reference compound] | < 5 | – | – | – | – |
| O=P(O)(O)c1nc2ccccc2nc1P(=O)(O)O [Compound 7, Quinoxaline-2,3-diylbis(phosphonic acid)] | 40 ± 7 | – | – | – | – |
| CCOP(=O)(OCC)c1nc2ccccc2nc1P(=O)(OCC)OCC [Compound 7c, Tetraethyl Quinoxaline-2,3-diylbis(phosphonate)] | < 5 | – | – | – | Inhibition (%) (ColQ1-CU; 100 μM): 7c; O=P(OCC)(OCC)C2=NC1=CC=CC=C1N=C2P(OCC)(OCC)=O; 3 ± 2% |
| O=P(O)(O)c1nc2ccc(F)cc2nc1P(=O)(O)O [Compound 8, (6-Fluoroquinoxaline-2,3-diyl)bis(phosphonic acid)] | – | – | – | – | Inhibition (%) (ColQ1-CU; 100 μM): 8; O=P(O)(O)C2=NC1=CC(F)=CC=C1N=C2P(O)(O)=O; 38 ± 3% |
| O=P(O)(O)c1nc2ccc(Cl)cc2nc1P(=O)(O)O [Compound 9, (6-Chloroquinoxaline-2,3-diyl)bis(phosphonic acid)] | – | 4 ± 0.6 | – | – | – |
| Cc1ccc2nc(P(=O)(O)O)c(P(=O)(O)O)nc2c1 [Compound 11, (6-Methylquinoxaline-2,3-diyl)bis(phosphonic acid)] | 58 | 3.4 ± 0.1 | inhibited the collagenase activity at all concentrations tested | inhibited the collagenase activity toward gelatin only marginally at 100 μM | MIC50 (B. cereus AH187; AH187, BHI medium, 37 °C, 48 h, 200–3 μM): 200 µM (≈ 60.8 µg/mL); Effect on cell morphology and ECM collagen content of infected NHDF cells [3]: smaller effect at all concentrations tested |
| CCOP(=O)(OCC)c1nc2ccc(C)cc2nc1P(=O)(OCC)OCC [Compound 11c, tetraethyl (6-methylquinoxaline-2,3-diyl)bis(phosphonate)] | < 5 | – | – | – | Inhibition (%) (ColQ1-CU; 100 μM): 11c; O=P(OCC)(OCC)C2=NC1=CC(C)=CC=C1N=C2P(OCC)(OCC)=O; 8 ± 4% |
| COc1ccc2nc(P(=O)(O)O)c(P(=O)(O)O)nc2c1 [Compound 12, (6-Methoxyquinoxaline-2,3-diyl)bis(phosphonic acid)] | 23 ± 6 | – | – | – | – |
| CCOP(=O)(OCC)c1nc2ccc(OC)cc2nc1P(=O)(OCC)OCC [Compound 12c, tetraethyl (6-methoxyquinoxaline-2,3-diyl)bis(phosphonate)] | – | – | – | – | % Inhibition (ColQ1-CU; 100 μM): n.i. (key: n.i.: no inhibition (percent inhibition < 5%)); Inhibition (%) (ColQ1-CU; 100 μM): 12c; O=P(OCC)(OCC)C2=NC1=CC(OC)=CC=C1N=C2P(OCC)(OCC)=O; 0 ± 2% |
| O=c1[nH]c2cc(Cl)c(Cl)cc2nc1P(=O)(O)O [Compound 16, (6,7-Dichloro-3-oxo-3,4-dihydroquinoxalin-2-yl)phosphonic Acid] | < 5 | – | severe degradation was visible at all tested concentrations | – | Inhibition (%) (ColQ1-CU; 100 μM): 16; O=P(O)(O)C2=NC1=CC(Cl)=C(Cl)C=C1NC2=O; 5 ± 2% |
| CC(=O)Nc1cccc(OCc2cn(CCNC(=O)C(CC(C)C)C(=O)NO)nn2)c1 (stereo not shown) [Compound 28, N-[2-[4-[(3-Acetamidophenoxy)methyl]triazol-1-yl]ethyl]-2-(hydroxycarbamoyl)-4-methyl-pentanamide] | – | 35 ± 1 | severe degradation was visible at all tested concentrations | no inhibitory effect on the collagenase in the zymography at all tested concentrations; also recorded: no inhibition of the collagenase in the gelatin zymography was detected | Effect on cell morphology and ECM collagen content of infected NHDF cells [3]: neither able to rescue cell morphology nor able to maintain the collagen content of the ECM |
| CC(=O)Nc1ccc(OCc2cn(CCNC(=O)C(CC(C)C)C(=O)NO)nn2)cc1 (stereo not shown) [Compound 29, N-[2-[4-[(4-Acetamidophenoxy)methyl]triazol-1-yl]ethyl]-2-(hydroxycarbamoyl)-4-methyl-pentanamide] | – | 35 ± 3 | severe degradation was visible at all tested concentrations | no inhibitory effect on the collagenase in the zymography at all tested concentrations; also recorded: no inhibition of the collagenase in the gelatin zymography was detected | Effect on cell morphology and ECM collagen content of infected NHDF cells [3]: neither able to rescue cell morphology nor able to maintain the collagen content of the ECM |
| CC(C)CC(C(=O)NO)C(=O)NCCn1cc(COc2ccccc2F)nn1 (stereo not shown) [Compound 30, N-[2-[4-[(2-Fluorophenoxy)methyl]triazol-1-yl]ethyl]-2-(hydroxycarbamoyl)-4-methyl-pentanamide] | 92 | 16.2 ± 0.8 | – | no inhibitory effect on the collagenase in the zymography at all tested concentrations | – |
| CC(C)CC(C(=O)NO)C(=O)NCCn1cc(COc2ccccc2)nn1 (stereo not shown) [Compound 31, 2-(Hydroxycarbamoyl)-4-methyl-N-[2-[4-(phenoxymethyl)triazol-1-yl]ethyl]pentanamide] | – | 12 ± 1 | severe degradation was visible at all tested concentrations | no inhibitory effect on the collagenase in the zymography at all tested concentrations; also recorded: no inhibition of the collagenase in the gelatin zymography was detected | Effect on cell morphology and ECM collagen content of infected NHDF cells [3]: neither able to rescue cell morphology nor able to maintain the collagen content of the ECM |
| CC(C)CC(C(=O)NO)C(=O)NCCn1cc(CSc2ccccc2)nn1 (stereo not shown) [Compound 32, 2-(Hydroxycarbamoyl)-4-methyl-N-[2-[4-(phenylsulfanylmethyl)triazol-1 yl]ethyl]pentanamide] | – | 10.1 ± 0.9 | severe degradation was visible at all tested concentrations | no inhibitory effect on the collagenase in the zymography at all tested concentrations; also recorded: no inhibition of the collagenase in the gelatin zymography was detected | Effect on cell morphology and ECM collagen content of infected NHDF cells [3]: neither able to rescue cell morphology nor able to maintain the collagen content of the ECM |
| CCCCCN(C)CCC(O)(P(=O)(O)O)P(=O)(O)O [Ibandronate sodium, reference compound] | < 5 | – | – | – | – |
| NCCCCCC(O)(P(=O)(O)O)P(=O)(O)O [Neridronate, reference compound] | < 5 | – | – | – | – |
| O=P(O)(O)C(O)(Cc1cccnc1)P(=O)(O)O [Risedronate sodium, reference compound] | < 5 | – | – | – | – |
